These results are taken from patent US4265830A, “Naphthalenetetrayletrakis(sulfonylimino)-aryl disulfonic acids and salts thereof” (priority 1979, dated 1981).

The structures appear in SMILES notation. Where two headings read alike, the source gives them in different places.

Test [1] has as its target T1, activated human C1 (Homo sapiens, UniProt P09871).
T1 sequence (P09871 16-437 limits assumed): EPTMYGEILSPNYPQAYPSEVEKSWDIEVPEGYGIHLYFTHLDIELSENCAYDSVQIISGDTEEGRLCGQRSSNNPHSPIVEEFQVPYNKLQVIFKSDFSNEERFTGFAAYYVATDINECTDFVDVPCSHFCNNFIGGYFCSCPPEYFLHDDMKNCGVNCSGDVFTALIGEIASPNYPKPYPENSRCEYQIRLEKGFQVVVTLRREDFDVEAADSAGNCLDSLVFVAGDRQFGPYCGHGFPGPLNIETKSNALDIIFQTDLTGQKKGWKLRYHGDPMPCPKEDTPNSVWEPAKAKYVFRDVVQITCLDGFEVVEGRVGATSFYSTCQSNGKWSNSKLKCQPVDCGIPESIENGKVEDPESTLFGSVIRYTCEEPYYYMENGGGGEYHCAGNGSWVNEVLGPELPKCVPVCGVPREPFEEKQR
T1 sequence (P09871 438-688 limits assumed): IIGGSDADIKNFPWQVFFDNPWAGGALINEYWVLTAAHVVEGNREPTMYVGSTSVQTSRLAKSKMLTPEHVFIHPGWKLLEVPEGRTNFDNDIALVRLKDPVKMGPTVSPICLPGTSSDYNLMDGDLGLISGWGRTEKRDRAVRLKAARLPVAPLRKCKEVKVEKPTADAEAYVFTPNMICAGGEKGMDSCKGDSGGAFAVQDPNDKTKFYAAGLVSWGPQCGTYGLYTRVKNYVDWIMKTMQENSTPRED
In words: Test Code 026 (C1 inhibitor). Type of test: biochemical. Particulars: activity in wells, twofold serial dilution assay; higher well number indicates higher activity. The text has this:
(§1) An active inhibitor protects C2 from C1 and C4; (ii) Test Code 035 (C3-C9 inhibitor)--This test determines the ability of the late components of human complement (C3-C9) to lyse EAC 142 in the presence of appropriate dilutions of the test compound. An active inhibitor protects EAC 142 from lysis by human C3-C9; (iii) Test Code 036 (C-Shunt inhibitor)--In this test human erythrocytes rendered fragile are lysed in autologous serum via the shunt pathway activated by cobra venom factor in the presence of appropriate dilutions of the test compound. Inhibition of the shunt pathway results in failure of lysis; (iv) Forssman Vasculitis Test--Here, the well known complement dependent lesion, Forssman vasculitis, is produced in guinea pigs by intradermal injection of rabbit anti-Forssman antiserum. […] Percent inhibition is calculated by comparison with simultaneous controls. […]

Test [2] deals with late components of human complement (C3-C9). The experiment in a line: Test Code 035 (C3-C9 inhibitor), lysis of EAC 142. The test is classed as biochemical. Particulars: activity in wells, twofold serial dilution assay; higher well number indicates higher activity.
Source text: as §1

Test [3] deals with shunt pathway. In words: Test Code 036 (C-Shunt inhibitor), lysis of human erythrocytes in autologous serum activated by cobra venom factor. The test is classed as cell-based. Particulars: activity in wells, twofold serial dilution assay; higher well number indicates higher activity.
Source text: as §1

The test system of test [4] is complement activity. In words: Guinea Pig Intraperitoneal Test (GPIP), serum complement activity. Type of test: in vivo. Particulars: Cavia porcellus, ip, 200 mg./kg. i.p., vs simultaneous controls. The text has this:
An active inhibitor protects C2 from C1 and C4; (ii) Test Code 035 (C3-C9 inhibitor)--This test determines the ability of the late components of human complement (C3-C9) to lyse EAC 142 in the presence of appropriate dilutions of the test compound. An active inhibitor protects EAC 142 from lysis by human C3-C9; (iii) Test Code 036 (C-Shunt inhibitor)--In this test human erythrocytes rendered fragile are lysed in autologous serum via the shunt pathway activated by cobra venom factor in the presence of appropriate dilutions of the test compound. Inhibition of the shunt pathway results in failure of lysis; (iv) Forssman Vasculitis Test--Here, the well known complement dependent lesion, Forssman vasculitis, is produced in guinea pigs by intradermal injection of rabbit anti-Forssman antiserum. The lesion is measured in terms of diameter, edema and hemorrhage and the extent to which a combined index of these is inhibited by prior intraperitoneal injection of the test compound at 200 mg./kg. is then reported, unless otherwise stated; (v) Forssman Shock Test--Lethal shock is produced in guinea pigs by an i.v. injection of anti-Forssman antiserum and the harmonic mean death time of treated guinea pigs is compared with that of simultaneous controls; (vi) Complement Level Reduction Test--In this test, the above dosed guinea pigs, or others, are bled for serum and the complement level is determined in undiluted serum by the capillary tube method of U.S. Pat. No. 3,876,376 and compared to undosed control guinea pigs; (vii) Cap 50 Test--Here, appropriate amounts of the test compound are added to a pool of guinea pig serum in vitro, after which the undiluted serum capillary tube assay referred to above is run. The concentration of compound inhibiting 50% is reported; (viii) Guinea Pig Intraperitoneal Test (GPIP)--Guinea Pigs weighing about 300 g. are dosed intraperitoneally (i.p.) with 200 mg./kg. of the test compound dissolved in saline and adjusted to pH 7-8. […] Percent inhibition is calculated by comparison with simultaneous controls. […]

For `O=S(=O)([O-])c1cc(NS(=O)(=O)c2cc(S(=O)(=O)Nc3cc(S(=O)(=O)[O-])cc(S(=O)(=O)[O-])c3)c3cc(S(=O)(=O)Nc4cc(S(=O)(=O)[O-])cc(S(=O)(=O)[O-])c4)cc(S(=O)(=O)Nc4cc(S(=O)(=O)[O-])cc(S(=O)(=O)[O-])c4)c3c2)cc(S(=O)(=O)[O-])c1.[Na+].[Na+].[Na+].[Na+].[Na+].[Na+].[Na+].[Na+]` [5,5',5",5"'-[1,3,5,7-Naphthalenetetrayltetrakis(sulfonylimino)]tetrakis-1,3-benzenedisulfonic acid, octasodium salt], the “Cl 026* Wells” value in test [1] was “+10 Wells”. Further, the “C-Late 035* Wells” value in test [2] is “+1 Wells”. In test [3], the “Shunt Inhibition 036* Wells” value is listed as “+7 Wells”. In addition, the inhibition at 200 mg/kg is -62% in test [4] (0.5 h, serum 30 minutes after injection, read-out: In Vivo Activity (Guinea Pig) % Inhibition Intraperitoneal, 30 minutes); -59% in test [4] (1 h, serum 60 minutes after injection, read-out: In Vivo Activity (Guinea Pig) % Inhibition Intraperitoneal, 60 minutes); -81% in test [4] (2 h, serum 120 minutes after injection, read-out: In Vivo Activity (Guinea Pig) % Inhibition Intraperitoneal, 120 minutes).
